How the values were obtained:
[1] = Binding affinity to hair pin DNA ODN2 5'-XGCCAGTGCGGCTTTTGCCGCACTGGC-3' (unknown origin) by surface plasmon resonance analysis
[2] = Selectivity ratio of Kd for mismatched hair pin DNA ODN4 5'-XGCCATGACGGCTTTTGCCGTACTGGC-3' (unknown origin) to Kd for hair pin DNA ODN1 5'-XGCCAGCGCGGCTTTTGCCGCGCTGGC-3' (unknown origin)
[3] = Binding affinity to hair pin DNA ODN4 5'-XGCCATGACGGCTTTTGCCGTACTGGC-3' (unknown origin) by surface plasmon resonance analysis
[4] = Selectivity ratio of Kd for mismatched hair pin DNA ODN2 5'-XGCCAGTGCGGCTTTTGCCGCACTGGC-3' (unknown origin) to Kd for hair pin DNA ODN1 5'-XGCCAGCGCGGCTTTTGCCGCGCTGGC-3' (unknown origin)
[5] = Selectivity ratio of Kd for mismatched hair pin DNA ODN3 5'-XGCCAGCACGGCTTTTGCCGTGCTGGC-3' (unknown origin) to Kd for hair pin DNA ODN1 5'-XGCCAGCGCGGCTTTTGCCGCGCTGGC-3' (unknown origin)
[6] = Binding affinity to hair pin DNA ODN3 5'-XGCCAGCACGGCTTTTGCCGTGCTGGC-3' (unknown origin) by surface plasmon resonance analysis
[7] = Binding affinity to hair pin DNA ODN1 5'-XGCCAGCGCGGCTTTTGCCGCGCTGGC-3' (unknown origin) by surface plasmon resonance analysis

CN(C)CCCNC(=O)CCNC(=O)c1cc(NC(=O)c2nc(NC(=O)c3cc(NC(=O)c4nc(NC(=O)CCCNC(=O)c5cc(NC(=O)c6nc(NC(=O)c7cc(NC(=O)c8nc(NC(=O)CCNC(=O)CCN)cn8C)cn7C)cn6C)cn5C)cn4C)cn3C)cn2C)cn1C
Kd [1]: 68 µM
Ratio [2]: 300
Kd [3]: 82 µM
Ratio [4]: 250
Ratio [5]: 230
Kd [6]: 63 µM
Kd [7]: 0.27 µM

CN(C)CCCNC(=O)CCNC(=O)c1cc(NC(=O)c2nc(NC(=O)c3cc(NC(=O)c4nc(NC(=O)CCCNC(=O)c5cc(NC(=O)c6nc(NC(=O)CCNC(=O)c7nc(NC(=O)CCNC(=O)CCN)cn7C)cn6C)cn5C)cn4C)cn3C)cn2C)cn1C
Kd [1]: 0.089 µM
Kd [3]: 0.047 µM
Kd [6]: 0.011 µM
Kd [7]: 0.00044 µM

CN(C)CCCNC(=O)CCNC(=O)c1cc(NC(=O)c2nc(NC(=O)CCNC(=O)c3nc(NC(=O)CCCNC(=O)c4cc(NC(=O)c5nc(NC(=O)c6cc(NC(=O)c7nc(NC(=O)CCNC(=O)CCN)cn7C)cn6C)cn5C)cn4C)cn3C)cn2C)cn1C
Kd [1]: 0.011 µM
Ratio [2]: 270
Kd [3]: 0.19 µM
Ratio [4]: 16
Ratio [5]: 120
Kd [6]: 0.083 µM
Kd [7]: 0.0007 µM

CN(C)CCCNC(=O)CCNC(=O)c1cc(NC(=O)c2nc(NC(=O)CCNC(=O)c3nc(NC(=O)CCCNC(=O)c4cc(NC(=O)c5nc(NC(=O)CCNC(=O)c6nc(NC(=O)CCNC(=O)CCN)cn6C)cn5C)cn4C)cn3C)cn2C)cn1C
Kd [1]: 0.011 µM
Ratio [2]: 29
Kd [3]: 0.018 µM
Ratio [4]: 17
Ratio [5]: 17
Kd [6]: 0.011 µM
Kd [7]: 0.00063 µM

Source: ChEMBL document CHEMBL2413062, “Effect of single pyrrole replacement with β-alanine on DNA binding affinity and sequence specificity of hairpin pyrrole/imidazole polyamides targeting 5'-GCGC-3'” (Bioorg Med Chem, 2013)
